Literature values, collected in patent US10144908B2, “Liquid soap having enhanced antibacterial activity” (Conopco, Inc., priority 2013, dated 2018).

Conditions: in water at 25° C.

## O=C([O-])CC(O)(CC(=O)[O-])C(=O)[O-].[Ag+].[Ag+].[Ag+] [Silver citrate]
  Ksp: 2.5e-16 mol/L
